This note sets out measurements from EPA's ToxRefDB 2.

The subject of series [1] is dog. The settings on record: Subchronic oral toxicity in nonrodent, beagle, Gavage/Intubation, dose end: 91 day, group: systemic, systemic / organ weight / liver / absolute + systemic / clinical chemistry / alanine aminotransferase (alt/sgpt) / alanine aminotransferase….
The test system of series [2] is rat. The settings on record: Subchronic oral toxicity in rodents, sprague dawley, Gavage/Intubation, dose end: 91 day, group: systemic.
The subject of series [3] is rat. The note with it: Carcinogenicity; fischer; Oral; Feed; dose end: 103 week; group: systemic; systemic / in life observation / body weight / body weight.
In series [4] the test system is mouse. The note with it: Carcinogenicity, b6c3f1, Oral, Feed, dose end: 103 week, group: systemic.
In series [5] the test system is rat. The note with it: Subchronic oral toxicity in rodents, fischer, Feed, dose end: 13 week, group: systemic, systemic / pathology microscopic / kidney / inflammation.
For series [6], the system named is mouse. The note with it: Subchronic oral toxicity in rodents, b6c3f1, Feed, dose end: 13 week, group: systemic.
Series [7] has as its system rat. The note with it: Prenatal developmental toxicity study, other, Oral, Gavage/Intubation, dose end: 15 GD.
Series [8] relates to dog. The note with it: Subchronic oral toxicity in nonrodent, beagle, Feed, dose end: 14 week, group: systemic.
Series [9] deals with mouse. The settings on record: Sub-acute repeat dose toxicity, Oral, Gavage/Intubation, dose end: 14 day, group: systemic.
Series [10] deals with rat. The note with it: Sub-acute repeat dose toxicity, sprague dawley, Oral, Gavage/Intubation, dose end: 14 day, group: systemic.
Series [11] concerns primate. The note with it: Sub-acute repeat dose toxicity; Oral; Gavage/Intubation; dose end: 14 day; group: systemic; systemic / clinical chemistry / albumin / albumin + systemic / hematology / fibrinogen / fibrinogen + systemic / hematology / neutrophils / ….
Series [12] concerns primate. The settings on record: Sub-acute repeat dose toxicity; Oral; Gavage/Intubation; dose end: 7 day; group: systemic; systemic / pathology gross / stomach / erosion + systemic / pathology gross / stomach / foci + systemic / pathology gross / stomach / lesion….
Series [13] has as its system primate. The settings on record: Sub-acute repeat dose toxicity, Oral, Gavage/Intubation, dose end: 14 day, group: systemic.
[14] abbreviates: systemic / clinical chemistry / [other] / [other] + systemic / clinical chemistry / alanine aminotransferase (alt/sgpt) / alanine ….
The mark [15] stands for this setting: systemic / clinical chemistry / alanine aminotransferase (alt/sgpt) / alanine aminotransferase (alt/sgpt) + systemic / clinical chemistry / ….
Where [16] appears, read: systemic / in life observation / body weight / body weight.
The mark [17] stands for this setting: systemic / in life observation / body weight / body weight + systemic / in life observation / mortality / mortality.
[18] abbreviates: systemic / in life observation / body weight / body weight gain + systemic / pathology microscopic / kidney / inflammation + systemic / ….
[19] abbreviates: group: developmental, developmental / developmental malformation / bone / fused.
[20] abbreviates: group: developmental, developmental / developmental malformation / bone / fused + developmental / developmental malformation / bone / incomplete ossification + ….
Setting [21] is: group: maternal, systemic / in life observation / body weight / body weight gain + systemic / in life observation / food consumption / food consumption.
The mark [22] stands for this setting: systemic / in life observation / food consumption / food efficiency + systemic / in life observation / body weight / body weight gain + ….
Setting [23] is: systemic / clinical chemistry / [other] / [other] + systemic / clinical chemistry / 5' nucleotidase / 5' nucleotidase + systemic / clinical ….
The mark [24] stands for this setting: systemic / organ weight / liver / absolute + systemic / in life observation / clinical signs / salivation.
The mark [25] stands for this setting: systemic / clinical chemistry / cytochrome p450, nos / cytochrome p450, nos + systemic / in life observation / clinical signs / abnormal ….
Where [26] appears, read: systemic / in life observation / food consumption / food consumption + systemic / clinical chemistry / cytochrome p450, nos / cytochrome ….

With `CC(=O)NCCN1CCc2cc(NC(=O)c3ccccc3-c3ccc(C(F)(F)F)cc3)ccc2C1`, in the series with dog [1], the LEL turned out to be 1 mg/kg/day, the LOAEL was > 5 mg/kg/day, the NEL was < 1 mg/kg/day and the NOAEL is ≥ 5 mg/kg/day. In the series with rat [2] (setting [14]), the LOAEL is > 50 mg/kg/day and the NOAEL was ≥ 50 mg/kg/day. Also, in the series with rat [2] (setting [15]), the LEL is 1 mg/kg/day and the NEL is < 1 mg/kg/day.

On to `CC(C)[C@@H]1CC[C@@H](C)C[C@H]1O` (racemic) [dl-Menthol], for which the LEL was found to be 375 mg/kg/day in the series on rat [3], 300 mg/kg/day in the series on mouse [4] (setting [16]), 750 mg/kg/day in the series with rat [5] and 1120 mg/kg/day in the series with mouse [6] (systemic / pathology microscopic / kidney / inflammation + systemic / pathology microscopic / lymph node / hyperplasia). Also, the lowest-observed-adverse-effect level (LOAEL) in the series with rat [3] was > 18700 mg/kg/day; with mouse [4] (setting [17]), > 600 mg/kg/day; in the series with rat [5], > 750 mg/kg/day; in the series with mouse [6] (setting [18]), > 2250 mg/kg/day. Moreover, the NEL with rat [3] is < 375 mg/kg/day; in the series with mouse [4] (setting [16]), < 300 mg/kg/day; in the series on rat [5] it was 375 mg/kg/day; with mouse [6] (setting [18]), 562 mg/kg/day. The NOAEL in the series on rat [3] was ≥ 18700 mg/kg/day; with mouse [4] (setting [17]), ≥ 600 mg/kg/day; in the series on rat [5], ≥ 750 mg/kg/day; in the series with mouse [6] (setting [18]), ≥ 2250 mg/kg/day.

As for `CCNc1nc(N)nc(Cl)n1` [Deisopropylatrazine], the LEL in the series with rat [7] (setting [19]) came to 25 mg/kg/day; with rat [7] (setting [21]), 25 mg/kg/day; with dog [8] (setting [22]), 18 mg/kg/day. For the same compound, the results for the LOAEL in the series on rat [7] (setting [19]), in the series with rat [7] (setting [21]) and in the series on dog [8] (systemic / in life observation / food consumption / food efficiency) were 25 mg/kg/day, 25 mg/kg/day and 18 mg/kg/day, respectively. The NEL with rat [7] (setting [20]) amounted to 5 mg/kg/day; in the series with rat [7] (setting [21]), 5 mg/kg/day; with dog [8] (setting [22]) it was 3.8 mg/kg/day. The results for the NOAEL in the series on rat [7] (setting [20]), in the series on rat [7] (setting [21]) and with dog [8] (setting [22]) were 5 mg/kg/day, 5 mg/kg/day and 3.8 mg/kg/day, respectively.

With `CC(C)c1cccc(C(C)C)c1NC(=O)[N-]S(=O)(=O)c1cc(C(C)(C)O)co1.[Na+]`, the LOAEL in the series with mouse [9] (setting [23]) was > 300 mg/kg/day; in the series with rat [10] (setting [24]), > 300 mg/kg/day; in the series with primate [11], > 100 mg/kg/day; in the series with primate [12] it was > 300 mg/kg/day; in the series on primate [13] (setting [26]), > 500 mg/kg/day. Besides, the NEL in the series on mouse [9] (setting [23]) was 75 mg/kg/day; in the series with rat [10] (systemic / organ weight / liver / absolute), 20 mg/kg/day; in the series on primate [11] it was < 100 mg/kg/day; in the series with primate [12], < 300 mg/kg/day; with primate [13] (setting [25]), 100 mg/kg/day. Moreover, the NOAEL was ≥ 300 mg/kg/day in the series with mouse [9] (setting [23]); ≥ 300 mg/kg/day in the series with rat [10] (setting [24]); ≥ 100 mg/kg/day with primate [11]; ≥ 300 mg/kg/day in the series on primate [12]; ≥ 500 mg/kg/day in the series on primate [13] (setting [26]). Besides, the LEL turned out to be 150 mg/kg/day in the series on mouse [9] (systemic / in life observation / body weight / body weight gain + systemic / organ weight / liver / absolute); 100 mg/kg/day in the series on rat [10] (setting [24]); 100 mg/kg/day in the series with primate [11]; 300 mg/kg/day in the series with primate [12]; 300 mg/kg/day in the series on primate [13] (setting [25]).

A word on the LOAEL: it is the lowest dose or exposure tested at which an adverse effect was seen. For orientation: NOAEL means the highest tested level that showed no adverse finding.
